Values of other authors in patent US20250345348A1, “AMPK ACTIVATOR (CBDA) AND SGLT2 INHIBITOR FOR METABOLIC HEALTH” (SOCIETE DES PRODUITS NESTLE S.A., priority 2022, published 2025).
Where two headings read alike, the source gives them in different places.

solubility (in ethanol and hot water): soluble
solubility (in ether and cold water): poorly soluble
stability in aqueous solutions (prolonged exposure to aqueous solutions): hydrolyzes to phloretin and glucose
Structure (SMILES): O=C(CCc1ccc(O)cc1)c1c(O)cc(O)cc1O[C@@H]1O[C@H](CO)[C@@H](O)[C@H](O)[C@H]1O [phlorizin, 1-(2,4-Dihydroxy-6-{[(2S,3R,4S,5S,6R)-3,4,5-trihydroxy-6-(hydroxymethyl)oxan-2-yl]oxy}phenyl)-3-(4-hydroxyphenyl)propan-1-one]
